Measurements published in patent publication US20220370453A1 (Storm Therapeutics Ltd, priority 2019, published 2022).

Key:
BCDIN3D [1] = biological target: T1, BCDIN3D (Homo sapiens, UniProt Q7Z5W3); experiment: BCDIN3D InCellPulse thermal stability assay in transfected A549 cells; format: cell-based; settings: heat shock 58° C. 15 min
T1 sequence (Q7Z5W3 1-292): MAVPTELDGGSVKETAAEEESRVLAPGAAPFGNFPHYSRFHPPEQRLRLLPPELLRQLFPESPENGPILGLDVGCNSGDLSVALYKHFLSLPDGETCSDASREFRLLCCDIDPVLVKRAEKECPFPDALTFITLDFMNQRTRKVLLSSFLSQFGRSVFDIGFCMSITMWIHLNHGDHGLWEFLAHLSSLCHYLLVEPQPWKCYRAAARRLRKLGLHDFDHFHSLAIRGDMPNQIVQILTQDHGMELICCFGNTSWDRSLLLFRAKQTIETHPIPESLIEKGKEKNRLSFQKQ
Summary of the method: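 Thermal stabilisation read-out: after a 15 min 58 °C heat shock, ePL-tagged BCDIN3D in transiently transfected A549 cells (1500/well) was quantified by enzyme-fragment complementation luminescence. Compounds were pre-incubated with cells 1 h at 37 °C, 0.6% DMSO final.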

BCDIN3D [2] = biological target: T1, BCDIN3D; experiment: BCDIN3D IC50 RFMS (RapidFire) assay with mini-helix; format: biochemical; settings: 25 nM enzyme
Summary of the method: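 SAH formation was measured by RapidFire mass spectrometry with D4- and 13C10-SAH internal standards after TCA quench. Substrates 6 μM SAM and 0.2 μM mini-helix reacted 1 h at 37 °C with 25 nM enzyme, which had been preincubated 10 min with compound (1% DMSO) in Tris pH 8.0 buffer with DTT, EDTA, BSA.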

[3] = transiently transfected A549 cells
[4] = mini-helix substrate 0.2 μM, SAM 6 μM
[5] = A549 cells transiently transfected with ePL-BCDIN3D, 1 h pre-incubation
[6] = mini-helix 0.2 μM and SAM 6 μM as substrates, 1 hr at 37° C.

IC50 (BCDIN3D [1]; [3]) [nM]	IC50 (BCDIN3D [2]; [4]) [nM]	IC50 (BCDIN3D [1]; [5]) [nM]	IC50 (BCDIN3D [2]; [6]) [nM]	Structure (SMILES)
120	70			Cn1ncc2c(NC(C)(C)C)nc(NCC(N)c3cccc(C4CC4)c3)nc21 (stereo not drawn) [Compound 5.32, N6-[2-amino-2-(3-cyclopropylphenyl)ethyl]-N4-tert-butyl-1-methyl-1H-pyrazolo[3,4-d]pyrimidine-4,6-diamine]
150	130			Cn1ncc2c(NC(C)(C)C)nc(NCC(N)c3ccc(C4CC4)cc3)nc21 (stereo not drawn) [Compound 5.33, N6-[2-amino-2-(4-cyclopropylphenyl)ethyl]-N4-tert-butyl-1-methyl-1H-pyrazolo[3,4-d]pyrimidine-4,6-diamine]
		6610	2510	CCOc1nc(NCC(N)c2ccccc2)nc2c1cnn2C (stereo not drawn) [Compound 6.01, N′-(4-Ethoxy-1-methylpyrazolo[3,4-d]pyrimidin-6-yl)-1-phenylethane-1,2-diamine]
		4150	2620	CC(C)Oc1nc(NCC(N)c2ccccc2)nc2c1cnn2C (stereo not drawn) [Compound 6.04, N′-(1-methyl-4-propan-2-yloxypyrazolo[3,4-d]pyrimidin-6-yl)-1-phenylethane-1,2-diamine]
		899	998	Cc1ccc(CNc2nc(N[C@H]3CCCC[C@H]3N)nc3c2cnn3C)cc1Cl [Compound 7.02, 6-N-[(1S,2R)-2-aminocyclohexyl]-4-N-[(3-chloro-4-methylphenyl)methyl]-1-methylpyrazolo[3,4-d]pyrimidine-4,6-diamine]
		2970	3910	Cn1ncc2c(NC3CC3)nc(NC[C@H](N)c3ccccc3)nc21 [Compound 7.04, N6-[(2R)-2-amino-2-phenyl-ethyl]-N4-cyclopropyl-1-methyl-pyrazolo[3,4-d]pyrimidine-4,6-diamine]
		169	241	Cn1ncc2c(Nc3ccc(F)cc3)nc(NC[C@H](N)c3ccccc3)nc21 [Compound 7.05, N6-[(2R)-2-amino-2-phenyl-ethyl]-N4-(4-fluorophenyl)-1-methyl-pyrazolo[3,4-d]pyrimidine-4,6-diamine]
		2930	2190	Cn1ncc2c(Nc3ccc(F)cc3)nc(NC[C@@H](N)c3ccccc3)nc21 [Compound 7.06, N6-[(2S)-2-amino-2-phenyl-ethyl]-N4-(4-fluorophenyl)-1-methyl-pyrazolo[3,4-d]pyrimidine-4,6-diamine]
		4120	5620	Cn1ncc2c(NCC(F)(F)F)nc(NC[C@@H](N)c3ccccc3)nc21 [Compound 7.07, N6-[(2S)-2-amino-2-phenyl-ethyl]-1-methyl-N4-(2,2,2-trifluoroethyl)pyrazolo[3,4-d]pyrimidine-4,6-diamine]
		223	33.4	Cn1ncc2c(Nc3ccc(C(F)(F)F)nc3)nc(NC[C@H](N)c3ccccc3)nc21 [Compound 7.08, N6-[(2R)-2-amino-2-phenyl-ethyl]-1-methyl-N4-[6-(trifluoromethyl)-3-pyridyl]pyrazolo[3,4-d]pyrimidine-4,6-diamine]
		414	209	Cn1ncc2c(Nc3ccc(C(F)(F)F)nc3)nc(NC[C@@H](N)c3ccccc3)nc21 [Compound 7.09, N6-[(2S)-2-amino-2-phenyl-ethyl]-1-methyl-N4-[6-(trifluoromethyl)-3-pyridyl]pyrazolo[3,4-d]pyrimidine-4,6-diamine]
		4180	181	Cn1ncc2c(NC(C)(C)C)nc(NC[C@@H](N)c3ccccc3F)nc21 [Compound 7.11, N6-[(2S)-2-amino-2-(2-fluorophenyl)ethyl]-N4-tert-butyl-1-methyl-pyrazolo[3,4-d]pyrimidine-4,6-diamine]
		410	330	Cn1ncc2c(NC(C)(C)C)nc(NC[C@H](N)c3ccc(F)cc3)nc21 [Compound 7.18, N6-[(2R)-2-amino-2-(4-fluorophenyl)ethyl]-N4-tert-butyl-1-methyl-1H-pyrazolo[3,4-d]pyrimidine-4,6-diamine]

Structure (SMILES)	IC50 (BCDIN3D [1]; [3]) [nM]	IC50 (BCDIN3D [2]; [4]) [nM]	IC50 (BCDIN3D [1]; [5]) [nM]	IC50 (BCDIN3D [2]; [6]) [nM]
Cn1ncc2c(OC(C)(C)C)nc(NCC(N)c3ccccc3)nc21 (stereo not drawn) [Compound 6.05, N′-(4-tert-butoxy-1-methyl-pyrazolo[3,4-d]pyrimidin-6-yl)-1-phenyl-ethane-1,2-diamine]			5140	4160
Cc1ccc(CNc2nc(NC[C@@H](N)CF)nc3c2cnn3C)cc1Cl [Compound 7.14, 6-N-[(2R)-2-amino-3-fluoropropyl]-4-N-[(3-chloro-4-methylphenyl)methyl]-1-methylpyrazolo[3,4-d]pyrimidine-4,6-diamine]			6320	5650
